In ChEMBL document CHEMBL3507680, “University of Dundee, Gates Library screen for HepG2 cell viability”:

experiment: Human HepG2 cell viability assay in 384 well format; assay type: toxicity, cell-based; set-up: dose 125 nL, time 70.5 hour; concentration not given beside the values; conditions: HepG2 cells, read-out: Inhibition

| SMILES | cytotoxicity at 70.5 h [%] |
| --- | --- |
| Cc1nc(N)ncc1C(=O)N1CCCC(CCc2ccccc2F)C1 (stereo unspecified) | 17 |
| Cc1cc(C)nc(NC2CCC(=O)N(C)C2)n1 (stereo unspecified) | -8.23 |
| Cn1c(Cn2cccn2)nnc1C1CCN(Cc2ccccc2Cl)CC1 | -4.12 |
| Cc1cc(CN2CCc3cncnc3C2)no1 | -8.98 |
| CCS(=O)(=O)N1CCC(c2nnc(CN3CCCC3)n2C2CC2)CC1 | -11.4 |
| CC(C)NC(=O)C1c2c(ncn2C(C)C)CCN1Cc1ccccc1 (stereo unspecified) | -3.52 |
| COc1c(C2CCCN2C(=O)c2ccoc2)c(C)nn1C (stereo unspecified) | 13.3 |
| O=C(C1CCCN(Cc2ccccc2)C1)N1CCc2sccc2C1 (stereo unspecified) | 31 |
| O=C(Cn1nnc(-c2ccc(F)cc2)n1)N1CCOCC(O)C1 (stereo unspecified) | -1.8 |
| COc1cc(C)sc1C(=O)N1CCC(Nc2cccnc2)CC1 | -5.15 |
| CC(Nc1cccc(CN2CCOC2=O)c1)C(=O)Nc1ccccc1 (stereo unspecified) | -22.1 |
| CNc1cncc(C2CCCN2Cc2cccc(C)n2)n1 (stereo unspecified) | -6.12 |
| O=S(=O)(N1CCCCC1)N1CCc2nc(C3CCNCC3)ncc2C1 | -13.5 |
| CC1CN(C(=O)CN(Cc2ccco2)C2CC2)CCO1 (stereo unspecified) | -10.6 |
| CC(NCC(N)=O)c1c(F)cccc1Cl (stereo unspecified) | -85.6 |
| CN(C)CCCNC(=O)c1ccc(N(C)S(C)(=O)=O)cc1Cl | -5.53 |
| CN1CCc2c(C#N)c(NCc3ccccc3)n3cnnc3c2C1 | 17.9 |
| Cc1nn(C)c2nc(N3CCC(C(O)c4ccccn4)CC3)sc12 (stereo unspecified) | -0.933 |
| Cc1cccc(CCC(=O)N2CCCC(c3cc(C(N)=O)[nH]n3)C2)c1 (stereo unspecified) | 19 |
| O=C(CO)N1CC2(CCN(c3ccccc3)C2)C1 | -6.59 |
| C[C@@H]1CN(CCC(=O)NCc2ccccc2Cl)C[C@@]1(O)C1CC1 | -2.59 |
| COCCCN(C)c1ncccc1I | 8.68 |
| CCc1ccc(C(=O)N2CCCC(c3noc(CC)n3)C2)o1 (stereo unspecified) | -2.81 |

| SMILES | cytotoxicity at 70.5 h [%] |
| --- | --- |
| O=C(CCC1CCCCO1)NCc1cnn(-c2ccc(F)cc2F)c1 (stereo unspecified) | 8.18 |
| COc1cc2c(cc1CNC(=O)C(C)n1ccnc1C(C)C)OCCO2 (stereo unspecified) | -3.89 |
| Cc1[nH]/c(=N\C(=O)c2csc(NCC(C)C)n2)sc1C | 5.69 |
| CS(=O)(=O)NCCN1CCCC1c1noc(C2CC2)n1 (stereo unspecified) | 19.5 |
| COc1nc2c(cc1C(=O)N1CCCOC(Cn3cccn3)C1)CCC2 (stereo unspecified) | -2.14 |
| O=C(NC1CCc2c(ccc(=O)n2CC2CC2)C1)c1cscn1 (stereo unspecified) | 18.1 |
| OCCCN1CCCC1c1nc(Cc2ccc(F)cc2)no1 (stereo unspecified) | 8.04 |
| COc1cccc(-n2nnc(C(=O)N3CCC(C(N)=O)CC3)c2C)c1 | -8.91 |
| Cc1nnc(SCCC(=O)N(C)Cc2ccc(Cl)s2)[nH]1 | -14.2 |
| O=C1CSC(c2ccc3c(c2)OCO3)c2cnn(C3CCCCC3)c2N1 (stereo unspecified) | -13.7 |
| CCN(Cc1cnc(C)cn1)C1CCN(c2ccccc2)C1=O (stereo unspecified) | 2.9 |
| CC(C)c1cc(=O)[nH]c(-n2nc(C3CC3)cc2N)n1 | 58.1 |
| O[C@@H]1CN(c2noc(C3CC3)n2)CC[C@H]1c1ccc2ccccc2c1 | 17.6 |
| COC[C@H]1CC[C@@H]2[C@@H](CCN2Cc2ccco2)O1 | 20.4 |
| CCOC(CC)C(=O)NCCC(=O)N1CCN(c2ccccn2)CC1 (stereo unspecified) | -14.2 |
| Cc1cnn(CCNc2ncnc3c2CCN(CC2CCOC2)CC3)c1 (stereo unspecified) | -2.24 |
| NC(=O)N1CCC2(CCN(Cc3ccccn3)C2=O)C1 (stereo unspecified) | -0.213 |
| Cc1cnn(CC2CCCCN2Cc2nc(N)c3ccccc3n2)c1 (stereo unspecified) | -6.17 |
| CCCN(CCc1ccccn1)C(=O)Cn1cnnn1 | -23.7 |
| Cc1nn(C)c(C)c1CN(C(=O)c1cnc(O)cn1)C(C)C | -2.89 |
| CNc1nc2c(c(C(=O)N3CCCC3)n1)CN(Cc1cc(C)no1)CC2 | 10.8 |
| CCCS(=O)(=O)N(C)C(=O)CCc1ccsc1 | 0.207 |
| CC(=O)N1CCC(c2cccc(Oc3ccccc3)n2)CC1 | -3.81 |
